# In US20260274892A1, “MACROCYCLIC BROAD SPECTRUM ANTIBIOTICS” (RQx Pharmaceuticals, Inc., priority 2017, published 2026):
# What was measured:
# [1] = system: Methicillin Resistant Staphylococcus aureus strain USA 200; assay: Minimum inhibitory concentration (MIC), CLSI broth micro-dilution, S. aureus; format: cell-based; details: MRSA USA 200, cation adjusted Mueller Hinton Broth + 0.002% Tween-80, 35° C., 22 hours
# Procedure, shortened: (§1)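 Colonies grown 20 h at 35° C on Trypticase Soy agar (MRSA) or Luria agar (E. coli) were suspended in cation-adjusted Mueller Hinton broth with 0.002% Tween-80. Suspensions were added at OD600 0.0005 to 10-point twofold compound dilutions, then incubated 22 h at 35° C.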
# [2] = system: Escherichia coli ATCC 25922; assay: Minimum inhibitory concentration (MIC), CLSI broth micro-dilution, E. coli; format: cell-based
# Procedure, shortened: as §1
# [3] = Staphylococcus aureus, MRSA / USA200, Table 6
# [4] = Escherichia coli, ATCC25922, 22 h, Table 6, cation adjusted Mueller Hinton Broth + 0.002% Tween-80, 35° C.
# [5] = Table 6, cation adjusted Mueller Hinton Broth + 0.002% Tween-80, 35° C., 22 hours
"MIC [1, 3] [µM]","MIC [2, 4] [µM]",Compound,also measured
0.047,0.2,"CCCCCc1ccc(-c2nc(C)c(C(=O)N[C@@H](CCN)C(=O)N(C)[C@@H]3C(=O)N[C@@H](C)C(=O)N[C@H](C(=O)NCC#N)Cc4ccc(O)c(c4)-c4cc3ccc4OCCN)c(C)n2)cc1 (racemic) [Compound 521, rac-(8S,11S,14S)-18-(2-aminoethoxy)-N-(cyanomethyl)-3-hydroxy-11-methyl-14-[methyl-[rac-(2S)-4-amino-2-[[4,6-dimethyl-2-(4-pentylphenyl)pyrimidine-5-carbonyl]amino]butanoyl]amino]-10,13-dioxo-9,12-diazatricyclo[13.3.1.12,6]icosa-1(18),2(20),3,5,15(19),16-hexaene-8-carboxamide]",
0.19,0.75,"CC(=O)NCCOc1ccc2cc1-c1cc(ccc1OCCN)[C@H](N(C)C(=O)[C@H](CCN)NC(=O)c1c(C)nc(-c3ccc(C(C)(C)C)cc3)nc1C)C(=O)N[C@@H](C)C(=O)N[C@H](C(=O)NCC#N)C2 (racemic) [Compound 517, rac-(8S,11S,14S)-3-(2-acetamidoethoxy)-18-(2-aminoethoxy)-N-(cyanomethyl)-11-methyl-14-[methyl-[rac-(2S)-4-amino-2-[[2-(4-tert-butylphenyl)-4,6-dimethyl-pyrimidine-5-carbonyl]amino]butanoyl]amino]-10,13-dioxo-9,12-diazatricyclo[13.3.1.12,6]icosa-1(18),2(20),3,5,15(19),16-hexaene-8-carboxamide]",
0.047,0.75,"Cc1nc(-c2ccc(OC3CCCCC3)cc2)nc(C)c1C(=O)N[C@@H](CCNS(C)(=O)=O)C(=O)N(C)[C@@H]1C(=O)N[C@@H](C)C(=O)N[C@H](C(=O)NCC#N)Cc2ccc(OCCN)c(c2)-c2cc1ccc2OCCN [Compound 497, (8S,11S,14S)-3,18-bis(2-aminoethoxy)-N-(cyanomethyl)-14-[[(2S)-2-[[2-[4-(cyclohexoxy)phenyl]-4,6-dimethyl-pyrimidine-5-carbonyl]amino]-4-(methanesulfonamido)butanoyl]-methyl-amino]-11-methyl-10,13-dioxo-9,12-diazatricyclo[13.3.1.12,6]icosa-1(18),2(20),3,5,15(19),16-hexaene-8-carboxamide]",
0.053,0.56,"Cc1cc(-c2ccc(CC(C)C)cc2)ncc1C(=O)N[C@@H](CCN)C(=O)N(C)[C@@H]1C(=O)N[C@@H](C)C(=O)N[C@H](C(=O)NCC#N)Cc2ccc(O)c(c2)-c2cc1ccc2OCCN (racemic) [Compound 525, rac-(8S,11S,14S)-18-(2-aminoethoxy)-N-(cyanomethyl)-3-hydroxy-11-methyl-14-[methyl-[rac-(2S)-4-amino-2-[[6-(4-isobutylphenyl)-4-methyl-pyridine-3-carbonyl]amino]butanoyl]amino]-10,13-dioxo-9,12-diazatricyclo[13.3.1.12,6]icosa-1(18),2(20),3,5,15(19),16-hexaene-8-carboxamide]",

# Second part, the molecule before the results:
Compound,"MIC [1, 3] [µM]","MIC [2, 4] [µM]",also measured
"Cc1nc(-c2ccc(OC3CCCCCC3)cc2)nc(C)c1C(=O)N[C@@H](CCN)C(=O)N(C)[C@@H]1C(=O)N[C@@H](C)C(=O)N[C@H](C(=O)NCC#N)Cc2ccc(OCCN)c(c2)-c2cc1ccc2OCCN (racemic) [Compound 340, rac-(8S,11S,14S)-3,18-bis(2-aminoethoxy)-N-(cyanomethyl)-11-methyl-14-[methyl-[rac-(2S)-4-amino-2-[[2-[4-(cycloheptoxy)phenyl]-4,6-dimethyl-pyrimidine-5-carbonyl]amino]butanoyl]amino]-10,13-dioxo-9,12-diazatricyclo[13.3.1.12,6]icosa-1(18),2(20),3,5,15(19),16-hexaene-8-carboxamide]",0.023,0.063,
"Cc1nc(-c2ccc(CCC(C)C)cc2)nc(C)c1C(=O)N[C@@H](CCN)C(=O)N(C)[C@@H]1C(=O)N[C@@H](C)C(=O)N[C@H](C(=O)NCC#N)Cc2ccc(OCCN)c(c2)-c2cc1ccc2OCCN (racemic) [Compound 262, rac-(8S,11S,14S)-3,18-bis(2-aminoethoxy)-N-(cyanomethyl)-11-methyl-14-[methyl-[rac-(2S)-4-amino-2-[[2-(4-isopentylphenyl)-4,6-dimethyl-pyrimidine-5-carbonyl]amino]butanoyl]amino]-10,13-dioxo-9,12-diazatricyclo[13.3.1.12,6]icosa-1(18),2(20),3,5,15(19),16-hexaene-8-carboxamide]",0.0081,0.097,
"Cc1nc(C#CC(C)C)ncc1C(=O)N[C@@H](CCN)C(=O)N(C)[C@@H]1C(=O)N[C@@H](C)C(=O)N[C@H](C(=O)NCC#N)Cc2ccc(OCCN)c(c2)-c2cc1ccc2OCCN (racemic) [Compound 229, rac-(8S,11S,14S)-3,18-bis(2-aminoethoxy)-N-(cyanomethyl)-11-methyl-14-[methyl-[rac-(2S)-4-amino-2-[[4-methyl-2-(3-methylbut-l-ynyl)pyrimidine-5-carbonyl]amino]butanoyl]amino]-10,13-dioxo-9,12-diazatricyclo[13.3.1.12,6]icosa-1(18),2(20),3,5,15(19),16-hexaene-8-carboxamide]",,,"MIC ([1]; Table 6): 0.57 µM; MIC [2, 5]: 4.6 µM"
"CCCCCCCCCCCCCC(=O)N1C[C@H](N)CC1C(=O)N(C)[C@@H]1C(=O)N[C@@H](C)C(=O)N[C@H](C(=O)NCC#N)Cc2ccc(OCCN)c(c2)-c2cc1ccc2OCCN (mixture of isomers) [Compound 483, rac-(8S,11S,14S)-3,18-bis(2-aminoethoxy)-14-[(4-amino-1-tetradecanoyl-pyrrolidine-2-carbonyl)-methyl-amino]-N-(cyanomethyl)-11-methyl-10,13-dioxo-9,12-diazatricyclo[13.3.1.12,6]icosa-1(18),2(20),3,5,15(19),16-hexaene-8-carboxamide]",,,"MIC ([1]; Table 6): 0.036 µM; MIC [2, 5]: 0.29 µM"
"Cc1nc(N2CC(C(C)(C)C)C2)nc(C)c1C(=O)N[C@@H](CCN)C(=O)N(C)[C@@H]1C(=O)N[C@@H](C)C(=O)N[C@H](C(=O)NCC#N)Cc2ccc(OCCN)c(c2)-c2cc1ccc2OCCN (racemic) [Compound 316, rac-(8S,11S,14S)-3,18-bis(2-aminoethoxy)-N-(cyanomethyl)-11-methyl-14-[methyl-[rac-(2S)-4-amino-2-[[2-(3-tert-butylazetidin-1-yl)-4,6-dimethyl-pyrimidine-5-carbonyl]amino]butanoyl]amino]-10,13-dioxo-9,12-diazatricyclo[13.3.1.12,6]icosa-1(18),2(20),3,5,15(19),16-hexaene-8-carboxamide]",0.38,1.5,
"Cc1nc(-c2ccc3c(c2)CCCC3)ncc1C(=O)N[C@@H](CCN)C(=O)N(C)[C@@H]1C(=O)N[C@@H](C)C(=O)N[C@H](C(=O)NCC#N)Cc2ccc(OCCN)c(c2)-c2cc1ccc2OCCN (racemic) [Compound 216, rac-(8S,11S,14S)-3,18-bis(2-aminoethoxy)-N-(cyanomethyl)-11-methyl-14-[methyl-[rac-(2S)-4-amino-2-[(4-methyl-2-tetralin-6-yl-pyrimidine-5-carbonyl)amino]butanoyl]amino]-10,13-dioxo-9,12-diazatricyclo[13.3.1.12,6]icosa-1(18),2(20),3,5,15(19),16-hexaene-8-carboxamide]",0.0084,0.2,
"Cc1nc(-c2ccc3c(c2)CCC3(C)C)nc(C)c1C(=O)N[C@@H](CCN)C(=O)N(C)[C@@H]1C(=O)N[C@@H](C)C(=O)N[C@H](C(=O)O)Cc2ccc(OCCN)c(c2)-c2cc1ccc2OCCN (racemic) [Compound 647, rac-(8S,11S,14S)-3,18-bis(2-aminoethoxy)-11-methyl-14-[methyl-[rac-(2S)-4-amino-2-[[2-(1,1-dimethylindan-5-yl)-4,6-dimethyl-pyrimidine-5-carbonyl]amino]butanoyl]amino]-10,13-dioxo-9,12-diazatricyclo [13.3.1.12,6]icosa-1(18),2(20),3,5,15(19), 16-hexaene-8-carboxylic acid]",,,"MIC ([1]; Staphylococcus aureus, MRSA / USA200, Table 8): 0.19 µM; MIC ([2]; Escherichia coli, ATCC25922, 22 h, Table 8, cation adjusted Mueller Hinton Broth + 0.002% Tween-80, 35° C.): 0.25 µM"
"CCCCCCCc1ccc(C(=O)N[C@@H](CCN)C(=O)N(C)[C@@H]2C(=O)N[C@@H](CC)C(=O)N[C@H](C(=O)NCC#N)Cc3ccc(OCCN)c(c3)-c3cc2ccc3OCCN)c(C)c1 (racemic) [Compound 479, rac-(8S,11S,14S)-3,18-bis(2-aminoethoxy)-N-(cyanomethyl)-11-ethyl-14-[methyl-[rac-(2S)-4-amino-2-[(4-heptyl-2-methyl-benzoyl)amino]butanoyl]amino]-10,13-dioxo-9,12-diazatricyclo[13.3.1.12,6]icosa-1(18),2(20),3,5,15(19),16-hexaene-8-carboxamide]",0.027,0.77,
"Cc1nc(-c2ccc(C(C)(C)C)cc2)nc(C)c1C(=O)N[C@@H](CCN)C(=O)N(C)[C@@H]1C(=O)N[C@@H](C)C(=O)N[C@H](C(=O)NCC#N)Cc2ccc(OCCCN)c(c2)-c2cc1ccc2OCCCN (racemic) [Compound 434, rac-(8S,11S,14S)-3,18-bis(3-aminopropoxy)-N-(cyanomethyl)-11-methyl-14-[methyl-[rac-(2S)-4-amino-2-[[2-(4-tert-butylphenyl)-4,6-dimethyl-pyrimidine-5-carbonyl]amino]butanoyl]amino]-10,13-dioxo-9,12-diazatricyclo[13.3.1.12,6]icosa-1(18),2(20),3,5,15(19),16-hexaene-8-carboxamide]",0.023,0.21,
